Assay results taken from publication PMC5622107, “Small molecule inhibition of cGAS reduces interferon expression in primary macrophages from autoimmune mice” (Nature Communications, 2017).
Like-named read-outs stand apart in the source and are kept apart here.

Tests used:
45-bp dsDNA = test: DNA intercalation: acridine orange displacement from dsDNA by fluorescence polarization; format: binding; details: Supplementary Table 2; for Polarization: compound 30 µM
Protocol: Ten microliters of HEN buffer (10 mM HEPES pH 7.5, 1 mM EDTA pH 7.5, 100 mM NaCl) were dispensed per well using a Thermo Multidrop Combi dispenser (Thermo Scientific). The liquid was collected at the well bottom using centrifugation for 30 s at 180×g. […] The final concentration of compounds in the assay was 30 µM. […] The liquid was collected at the well bottom using centrifugation for 30 s at 180×g. […] The liquid was collected at the well bottom using centrifugation for 30 s at 180 × g and the plates were incubated for 30 min. Mitoxantrone, a known DNA intercalator was used at 50 µM as a positive control, while DMSO alone was used as negative control. FP was measured using a Biotek Synergy Neo plate reader. […] All FP values are expressed in millipolarization (mP) units. The mP values were calculated using the equation mP = 1000 × [(I S−I SB)−(I P−I PB)]/[I S—I SB) + (I P−I PB)], where I S and […] to the parallel and perpendicular emission intensity, respectively, and I SB and I SP corresponds to parallel emission intensity perpendicular emission intensity of the buffer, respectively. The experimental G-factor, defined as G = I S/I P, was set to 1.0 in all experiments.

IFNB1-Luc activity = test: Interferon induction cellular assay (IFNB1-Luc) of the original manuscript version, reported in the point-by-point response; format: cell-based; details: original Fig. 5a, compared with vehicle
mouse cGAS = biological target: T1, mouse cGAS (Mus musculus, UniProt Q8C6L5); test: RapidFire mass spectrometry (RF-MS) cGAS enzymatic assay, cGAMP product formation; format: biochemical; details: for IC50: read-out: IC50; for inhibition at 12.5 µM: compound 12.5 µM, read-out: % inhibition at 12.5 µM
T1 construct: recombinant full-length mouse cGAS in reaction buffer; His6-SUMO (N, cleaved yes); made in house; host or cells: E. coli BL21(DE3) RIL
Protocol: The liquid was collected at the well bottom using centrifugation for 30 s at 180×g. […] Plates were centrifuged for 30 s at 180×g to collect all liquid at the bottom of the wells. […] The reaction was stopped by addition of 65 µl of 0.5% (v/v) formic acid per well. The plates were centrifuged for 30 s at 180×g and sealed with a Velocity11 PlateLoc thermal plate sealer.
The solvent used for loading/washing process was an aqueous solution of 5 mM ammonium acetate, pH 10. […] Each sample of approximately 35 µl were aspirated from a 384-well plate and separated using a Graphitic carbon Type D cartridge. After each sample was loaded onto the cartridge it was washed for 4 s at 1.5 ml min^−1 using the aqueous solvent. ATP, GTP and cGAMP were eluted for 5 s using the organic solvent at a flow rate of 1.5 ml min^−1. The cartridge was then re-equilibrated with the aqueous solvent for 5 s at a flow rate of 1.5 ml min^−1. All samples were analyzed using a negative ionization mode in the mass spectrometer, with a gas temperature of 350 °C, nebulizer pressure of 35 psig, gas flow rate of 15 l min^−1. […] The Agilent RapidFire Integrator software was used to calculate the area under the curve (AUC) of the extracted ion counts for each analyte. Data points represent values of product formation. Catalytic rates expressed as percent product formation were calculated using the AUC of cGAMP and using the AUC’s of ATP and GTP to normalize for variations in the capacity of the solid phase extraction column during a screening run, as shown in the following formula: product formation (%) = [(AUCcGAMP × 100)/(AUCcGAMP + ½ AUCATP + ½ AUCGTP)].
To determine the percent inhibition of mouse cGAS the data was normalized against the positive control (column 24) and negative control (column 23). […] The quality of the screen was assessed by Z′ factor[57] calculated as follows: Z′ = 1−[3∗(standard deviation positive control + standard deviation negative control)/(average positive control—average negative control)].

RAW 264.7 = test: Cytotoxicity, CellTiter-Glo ATP quantitation at 72 h; format: cell-based
Protocol: Small-molecule compounds were serially diluted to concentrations spanning the range tested in the response curves were added to 6.7 × 10^5 RAW-Blue macrophages plated 16 h prior in 96-well dishes, then harvested 72 h after compound addition. ATP was measured using CellTiter Glo Viability Assay (Promega) using 50 µM Tamoxifen (Sigma) as a positive control for cytotoxicity. Viability values were generated using vehicle (DMSO) or the first dose (RU.521) as 100% and Tamoxifen as 0%. Outliers were removed as described previously.

[1] = tested on: cGAS activity in dsDNA-stimulated RAW macrophages; test: Cellular luciferase assay, interferon-responsive reporter in dsDNA-stimulated RAW macrophages; format: cell-based; details: Mus musculus, Macrophage, dsDNA-activated RAW cells
Protocol: (§1) The sequence and annealing conditions of the dsDNA used is described above. Typically, 0.4 µg or 0.6 µg of dsDNA was used to stimulate RAW-Lucia ISG-KO-TREX1/ISG-KO-cGAS or RAW-Lucia ISG cells, respectively, which equated to 90% of maximal luciferase activity observed. dsDNA stimulation of RAW macrophages and subsequent luciferase measurements were performed with or without the addition of small molecules at indicated concentrations in each figure, or with DMSO as vehicle control. For the dose curve experiments, serial dilutions of inhibitors were applied to 6.7 × 10^5 cells, plated in 24-well dishes, and co-stimulated with 0.4 µg of dsDNA. In subsequent experiments using inhibitors in RAW cells, the small molecules were used at concentrations representing the derived EC75 values, while co-stimulated with one of the following: 0.4 µg dsDNA, 50 nM 5′ppp-HP20 hairpin RNA (a kind gift from Dr Anna Pyle, Yale University; sequence located in Supplementary Table 5), 10 µM cGAMP, or 100 U ml^−1 murine recombinant Ifnb (R&D Systems). dsDNA was transfected using Lipofectamine LTX. 5′ppp-HP20 RNA was transfected using Lipofectamine 2000. Cells were harvested 24 h post-transfection, washed with PBS, and lysed in 1× Luciferase Cell Lysis Buffer (Pierce).
(§2) The minimum numbers of biological and technical replicates for the luciferase assays were two and three, respectively. Analysis of luminescence values were evaluated for outliers (one standard deviation above and below the mean) for each biological replicate, and the resulting means were used to generate graphs in GraphPad Prism (v. 7.0c); where applicable, an unpaired t-test with Welch’s correction was used to compare the results of each individual compound to dsDNA or other stimulant. The experimental variances observed within control samples (untreated or vehicle) and treated samples were similar.

[2] = tested on: RAW macrophage cells stimulated with 5′ppp-HP20 RNA, Pam3CSK4, poly(I:C), LPS or recombinant Ifnb; test: Selectivity: RAW macrophages stimulated with non-DNA immunogenic ligands (luciferase reporter or Il-6 qRT-PCR); format: cell-based, mouse; details: compound at EC75; 5′ppp-HP20 RNA, Pam3CSK4, poly(I:C), LPS, Ifnb
Protocol: as §1, §2
The small molecules were used at concentrations representing the EC75 values and were co-stimulated with either 200 ng Pam3CSK4 (Invivogen), 25 µg poly(I:C) or 100 ng lipopolysaccharide (Sigma-Aldrich) at the cell counts and conditions previously described for the cellular luciferase assays. Cells were harvested 24 h post-transfection, washed with PBS, and RNA was extracted using Trizol (Ambion) and chloroform (Sigma-Aldrich). In all, 1–2 µg of total RNA was reverse-transcribed using random hex primers and SuperScript III (Life Technologies) into cDNA. […] The expression of mRNAs […] murine Actb1 and Il-6 were measured (see Supplementary Table 5 for primer sequences used). Target C T values were normalized to Actb1 C T values and used to calculate ΔC T. mRNA expression of target genes were then calculated using the ΔΔC T method (2^ΔΔCT). Expression values were analyzed as described in the method for cellular luciferase assays.

[3] = biological target: cGAS (cyclic GMP-AMP synthase) (mouse, UniProt Q8C6L5 147-507); test: X-ray crystallography, 2.13 A; RU.365 in active site; Co-crystallization; crystallization buffer not in the material; protein stock 20 mM Tris-HCl pH 7.5, 300 mM NaCl, 1 mM DTT. ITC values are for inhibitors, and t; details: protein: recombinant; tags: His6-SUMO removed by ULP1; chain copies: 2; 16 bp plus 1-nt 5' overhang at each end
[4] = Fig. 1e, four prioritized screening hits, confirmed with independent lots of compound
[5] = Supplementary Table 2, batch of compounds stored in the screening library

T1 sequence (Q8C6L5 whole entry): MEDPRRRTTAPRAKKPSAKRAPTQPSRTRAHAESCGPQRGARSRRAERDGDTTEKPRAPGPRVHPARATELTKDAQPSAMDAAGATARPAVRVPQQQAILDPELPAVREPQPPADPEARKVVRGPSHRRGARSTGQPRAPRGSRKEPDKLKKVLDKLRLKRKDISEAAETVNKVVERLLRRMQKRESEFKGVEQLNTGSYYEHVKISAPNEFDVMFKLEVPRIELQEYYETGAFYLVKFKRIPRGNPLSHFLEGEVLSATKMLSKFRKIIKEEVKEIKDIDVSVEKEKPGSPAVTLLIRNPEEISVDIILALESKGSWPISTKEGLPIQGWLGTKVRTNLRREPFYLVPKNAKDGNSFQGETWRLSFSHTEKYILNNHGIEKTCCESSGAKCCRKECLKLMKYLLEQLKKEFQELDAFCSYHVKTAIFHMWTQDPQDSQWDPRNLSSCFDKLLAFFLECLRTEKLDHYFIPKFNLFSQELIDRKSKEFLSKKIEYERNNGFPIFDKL
cGAS (cyclic GMP-AMP synthase), sequence (Q8C6L5 147-507): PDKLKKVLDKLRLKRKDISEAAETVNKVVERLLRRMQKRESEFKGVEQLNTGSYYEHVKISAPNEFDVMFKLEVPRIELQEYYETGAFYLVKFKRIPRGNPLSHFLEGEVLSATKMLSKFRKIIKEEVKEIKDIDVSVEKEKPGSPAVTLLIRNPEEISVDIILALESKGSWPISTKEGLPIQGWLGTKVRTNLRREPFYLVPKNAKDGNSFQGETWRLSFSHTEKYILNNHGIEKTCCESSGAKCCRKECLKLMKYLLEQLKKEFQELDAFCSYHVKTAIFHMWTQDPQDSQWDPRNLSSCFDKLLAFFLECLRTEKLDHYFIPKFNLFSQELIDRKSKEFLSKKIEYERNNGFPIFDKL

| Polarization (45-bp dsDNA) [mP] | IC50 (mouse cGAS; [4]) [nM] | IC50 (mouse cGAS; [5]) [nM] | inhibition at 12.5 µM (mouse cGAS; Supplementary Table 2) [%] | Molecule | IFNB1-Luc activity (IFNB1-Luc activity) | other results |
| --- | --- | --- | --- | --- | --- | --- |
| 269 | 30 | 60 | 88 | O=C1N=C(N2CCCCC2)SC1=C1C(=O)Nc2ccccc21 [RU100840] | mild activation | % intercalation at 30 µM (45-bp dsDNA; acridine orange displacement compared to mitoxantrone): -8.9% |
| 276 | 70 | 170 | 95 | O=C(COc1ccc(Cl)c2ccccc12)Nc1ncccc1O [RU191752] | mild activation | – |
| – | – | – | – | Cc1nn(-c2nc3ccccc3s2)c(O)c1C1OC(=O)c2ccccc21 (stereo not drawn) [RU281332] | – | IC50 (mouse cGAS; Supplementary Table 3, analogs more potent than RU166365): 1790 nM; effect of structural modification on cGAS inhibitory potency (mouse cGAS; compared with RU.365): did not change the potency; LD50 over cellular IC50 (RAW 264.7): 3.5 fold; LD50 (RAW 264.7; RAW macrophages, 72 h, percent viability, listed as RU.332): 48 µM; IC50 [1]: 13600 nM; suppression of activation by immunogenic stimuli other than dsDNA [2]: inhibited the activation of cells by most of the immunogenic ligands tested |
| – | – | – | – | crystal dsDNA (dsDNA) DNA 1: AAATTGCCGAAGACGAA DNA 2: TTTCGTCTTCGGCAATT | – | binding result [3]: binds |
